# Experimental data published in patent US6808924B1, “Mouse mammary tumor lines expressing estrogen and progesterone receptors” (priority 2000, dated 2004).
# Columns and labels:
# [1] = tested on: MC4-L1 cell line; test: In vitro hormone response, 3H-thymidine uptake, MC4-L1; type: cell-based, mouse
# Description: (§1) 3H-Thymidine uptake: In a 96 well microplate, 0.1 ml/well of a cell suspension were seeded in EM at a concentration of 10^5 cell/ml. After attachment (24 hs), the cells were incubated for 72 hs with the experimental solutions to be tested. Half the media was changed every 24 hs. The cells were incubated with 0.4 μCi of ^3H-thymidine (specific activity: 20 Ci/mmol) for 24 hs, trypsinized and harvested in a cell harvester. Filters were counted in a liquid scintillation counter. Assays were performed in octuplicates and mean and standard deviation were calculated for each solution tested. The difference between controls and experimental groups were analyzed by ANOVA followed by Dunnet's t test between groups.
# [2] = tested on: MC4-L2 cell line; test: In vitro hormone response, 3H-thymidine uptake, MC4-L2; type: cell-based, mouse
# Description: as §1
# [3] = tested on: MC7-L1 tumors; test: In vivo hormone response, MC7-L1 tumors in BALB/c female mice; set-up: species or system mouse; conditions: for effect on tumor size (tumor regression): MC7-L1 tumors, ZK 10 mg/Kg or RU 6.5 mg/Kg daily sc, E2 5 mg silastic pellet sc
# Description: (§2) Cells were trypsinized and resuspended in 10 fold excess of culture medium and 10% FCS. After centrifugation cells were resuspended in serum-free medium and […] were injected sc in a final volume of 0.1 ml using a 21 gauge needle in the right inguinal flank of BALB/c mice which have been inoculated contralaterally with 40 mg MPA depot (Gador Laboratories, Buenos Aires). The mice were examined every three days for the development of palpable tumors. At the end of the experiment the animals were killed and the tumors excised. Complete autopsies were performed to detect the presence of metastases. Animal care was in agreement with institutional guidelines. Cells from different lines were inoculated into BALB/c female mice treated or not with MPA as described previously. If tumors grew similarly in treated and untreated animals, the tumors growing in untreated mice were used for the next passage. Tumors were transplanted by trocar sc in the right inguinal flank of 2 month old, BALB/c female mice. Hormone treatments were initiated when the tumors reached around 50 mm2. RU (6.5 mg/Kg body weight) and ZK (10 mg/Kg body weight) were inoculated as daily sc injections. E2 was administered as 5 mg silastic pellets implanted sc. Tumor growth was measured every 2-3 days.
# [4] = tested on: MC4-L3 cell line; test: In vitro hormone response, 3H-thymidine uptake, MC4-L3; type: cell-based, mouse
# Description: as §1
# [5] = tested on: MC7-L1 cell line; test: In vitro hormone response, 3H-thymidine uptake, MC7-L1; type: cell-based, mouse; set-up: In vitro proliferative response: key to the marks not given beside the values
# Description: as §1
# [6] = tested on: MC4-L3 tumors; test: In vivo hormone response, MC4-L3 tumors in BALB/c female mice; set-up: species or system mouse; conditions: for effect on tumor size (tumor regression): MC4-L3 tumors about 50 mm2, ZK 10 mg/Kg or RU 6.5 mg/Kg daily sc, E2 5 mg silastic pellet sc
# Description: as §2
# [7] = tested on: C4-HD primary and secondary cultures; conditions: primary and secondary cultures of C4-HD (Dran G. et al. 1995); cited from earlier work
# [8] = tested on: MC4-L1 tumors; test: In vivo hormone response, MC4-L1 tumors in BALB/c female mice; set-up: species or system mouse; conditions: for effect on tumor size (tumor regression): MC4-L1 tumors about 50 mm2, no MPA, ZK 10 mg/Kg or RU 6.5 mg/Kg daily sc, E2 5 mg silastic pellet sc
# Description: as §2
# [9] = tested on: MC4-L2 tumors; test: In vivo hormone response, MC4-L2 tumors in BALB/c female mice; set-up: species or system mouse
# Description: as §2
# [10] = MC4-L1, early passages (before passage number 16)
compound,measurement,setting,value
"C[C@]12CC[C@@H]3c4ccc(O)cc4CC[C@H]3[C@@H]1CC[C@@H]2O [E2, estradiol]",In vitro proliferative response,"[1]; MC4-L1, Table 2 grade",±
same,In vitro proliferative response,"[2]; MC4-L2, Table 2 grade",+
same,effect on tumor size (tumor regression),[3],not inhibited
same,In vitro proliferative response,"[4]; MC4-L3, Table 2 grade",−
same,concentration at which the higher values of proliferation were obtained,[5]; MC7-L1,about 1 nM
same,In vitro proliferative response,"[5]; MC7-L1, Table 2 grade",++
"CC(=O)O[C@]1(C(C)=O)CC[C@H]2[C@@H]3C[C@H](C)C4=CC(=O)CC[C@]4(C)[C@H]3CC[C@@]21C [MPA, medroxyprogesterone acetate]",effect on cell proliferation (3H-thymidine uptake),[1]; [10],stimulatory effect
same,effect on cell proliferation (3H-thymidine uptake),"[1]; MC4-L1, later passages",only evident (p<0.05) with uM concentrations
same,effect on cell proliferation (3H-thymidine uptake),"[2]; MC4-L2, 0.1 nM to about 10 nM",significant stimulatory effect
same,MPA dependence of tumor growth,"[3]; MC7-L1, MPA-treated vs non-treated mice",PI pattern of growth
same,MPA dependence of tumor growth,"[6]; MC4-L3, MPA-treated vs non-treated mice",PD pattern
same,effect on cell growth (3H-thymidine uptake),"[5]; MC7-L1, about 1 nM to about 1 uM",significantly stimulates cell growth
same,effect on cell proliferation,[7],stimulates directly cell proliferation
same,MPA dependence of tumor growth,"[8]; MC4-L1 inoculated sc, mice treated or not with 40 mg MPA depot sc",same pattern of growth that was observed in the parental tumor line
same,MPA dependence of tumor growth,"[8]; MC4-L1 subculture 70, 3rd passage",MPA-dependent
same,MPA dependence of tumor growth,"[8]; MC4-L1 subculture 70, next passage",growth was favored
same,MPA dependence of tumor growth,"[9]; MC4-L2, MPA-treated vs non-treated mice",PI pattern of growth
"CC#C[C@]1(O)CC[C@H]2[C@@H]3CCC4=CC(=O)CCC4=C3[C@@H](c3ccc(N(C)C)cc3)C[C@@]21C [RU, mifepristone]",effect on cell proliferation (3H-thymidine uptake),[1]; [10],agonist effect
same,effect on cell proliferation (3H-thymidine uptake),[2]; MC4-L2,did not induce any change
same,effect on tumor size (tumor regression),[3],not inhibited
same,effect on tumor size (tumor regression),[6],Complete regression
same,effect on cell proliferation (3H-thymidine uptake),"[5]; MC7-L1, about 0.1 to about 1 μM",stimulatory effect
same,effect on tumor size (tumor regression),[8],Only animals treated with ZK showed tumor regression
same,effect on tumor size (tumor regression),"[9]; MC4-L2 tumors about 50 mm2, RU 6.5 mg/Kg daily sc",complete regression
"CN(C)c1ccc([C@H]2C[C@]3(C)[C@@H](CC[C@]3(O)CCCO)[C@@H]3CCC4=CC(=O)CCC4=C32)cc1 [ZK, onapristone]",effect on cell proliferation (3H-thymidine uptake),"[1]; MC4-L1, μM concentrations",stimulated cell proliferation
same,effect on cell proliferation (3H-thymidine uptake),"[2]; MC4-L2, about 0.1 to about 1 uM",in some experiments showed an inhibitory effect
same,effect on tumor size (tumor regression),[3],not inhibited
same,effect on tumor size (tumor regression),[6],Complete regression
same,effect on thymidine uptake,[5]; MC7-L1,did not modify thymidine uptake
same,effect on tumor size (tumor regression),[8],showed tumor regression
TGFβ1: TGFβ1,effect on cell proliferation (3H-thymidine uptake),"[1]; MC4-L1, later passages",significant inhibition of cell growth
same,effect on cell proliferation (3H-thymidine uptake),[4]; MC4-L3,inhibited
same,effect on thymidine uptake,[5]; MC7-L1,had no effects
